Test results: patent US20100041642A1, “UREA INHIBITORS OF MAP KINASES” (LOCUS PHARMACEUTICALS, INC., priority 2008, published 2010)

molecular target: p38 (Homo sapiens, UniProt Q16539); assay: Protein Kinase Assay (33P incorporation from γ-[33P]ATP into GST-ATF-2); assay type: biochemical; details: 2 nM p38, preincubated 20 min at 30° C.; 10 uM cold ATP, 2 uM GST-ATF2, 70 min; read-out: ACT. (Activity), IC50 category in Protein Kinase Assay
Experimental: Protein Kinase Assay. The protein kinase activity of p38 was determined by measuring the incorporation of ^33P from γ-[^33P]ATP into the GST-ATF-2 substrate, amino acids 19-96 (Upstate, N.Y. USA). The reactions were carried out in a final volume of 50 μL of 24 mM Tris-HCl buffer, pH 7.5, containing 13 mM MgCl2, 12% Glycerol, 2% DMSO, 2 mM DTT, […] of γ-[^33P]ATP (1000 Ci/mmol; 1 Ci=37 GBq) (GE Healthcare, Piscataway, N.J.), 10 uM cold ATP (GE Healthcare, Piscataway, N.J.), and 2 uM GST-ATF2. Compounds were preincubated with 2 nM p38 for 20 min at 30° C.; the reactions were initiated by the addition of GST-ATF2 and ATP and incubated for 70 min at 30° C. before being stopped by the addition of 10 μL of 600 mM phosphoric acid. The phosphorylated substrate was captured on phosphocellulose 96-well plate (Millipore MAPHNOB 10), washed with 100 mM phosphoric acid, and counted in a BeckmenCoulter LS6500 liquid scintillation counter. […] (Activity).

Chain of p38 (Q16539 whole entry, the tested form may be a part): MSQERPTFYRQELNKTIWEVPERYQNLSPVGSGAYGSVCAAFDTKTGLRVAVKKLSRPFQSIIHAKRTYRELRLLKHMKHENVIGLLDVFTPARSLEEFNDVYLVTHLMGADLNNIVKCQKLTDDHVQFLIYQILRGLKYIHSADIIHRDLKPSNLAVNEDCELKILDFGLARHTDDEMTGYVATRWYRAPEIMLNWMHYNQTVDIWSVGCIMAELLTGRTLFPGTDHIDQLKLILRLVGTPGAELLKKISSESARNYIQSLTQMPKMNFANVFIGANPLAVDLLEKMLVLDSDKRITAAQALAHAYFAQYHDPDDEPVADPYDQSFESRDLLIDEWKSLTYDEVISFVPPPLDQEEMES

Row | IC50 | SMILES
1 | < 100 nM | CCNC(=O)c1ccc(-c2cc(NC(=O)Nc3cc(C(C)(C)C)sc3C(=O)N3CCNC(=O)C3(C)C)ccc2C)cn1
2 | < 100 nM | Cc1ccc(NC(=O)Nc2sc(C(C)(C)C)cc2C(=O)N2CCNS(=O)(=O)CC2)cc1-c1ccc(CN2CCOCC2)nc1
3 | < 100 nM | Cc1nnc(-c2ccc(-c3cc(NC(=O)Nc4cc(C(C)(C)C)sc4C(=O)N4CCN(C)C(=O)C4(C)C)ccc3C)cn2)o1
4 | < 100 nM | CCOc1ccc(-c2cc(NC(=O)Nc3cn(C(C)(C)C)nc3C(=O)N3CCN(C)C(=O)C3(C)C)ccc2C)cn1 [1-(1-tert-butyl-3-(2,2,4-trimethyl-3-oxopiperazine-1-carbonyl)-1H-pyrazol-4-yl)-3-(3-(6-ethoxypyridin-3-yl)-4-methylphenyl)urea]
5 | < 100 nM | CCc1ccc(-c2cc(NC(=O)Nc3cn(C(C)(C)C)nc3C(=O)N3CCN(C)C(=O)C3(C)C)ccc2C)cn1 [1-(1-tert-butyl-3-(2,2,4-trimethyl-3-oxopiperazine-1-carbonyl)-1H-pyrazol-4-yl)-3-(3-(6-ethylpyridin-3-yl)-4-methylphenyl)urea]
6 | < 100 nM | CCc1ccc(-c2cc(NC(=O)Nc3cn(C(C)(C)C)nc3C(=O)N3CCN(C)C(=O)C3(C)C)cc(F)c2C)cn1 [1-(1-tert-butyl-3-(2,2,4-trimethyl-3-oxopiperazine-1-carbonyl)-1H-pyrazol-4-yl)-3-(3-(6-ethylpyridin-3-yl)-5-fluoro-4-methylphenyl)urea]
7 | < 100 nM | Cc1ccc(NC(=O)Nc2cn(C(C)(C)C)nc2C(=O)N2CCN(C)C(=O)C2(C)C)cc1-c1ccc(C(C)C)nc1 [1-(1-tert-butyl-3-(2,2,4-trimethyl-3-oxopiperazine-1-carbonyl)-1H-pyrazol-4-yl)-3-(3-(6-isopropylpyridin-3-yl)-4-methylphenyl)urea]
8 | < 100 nM | Cc1ccc(NC(=O)Nc2cn(C(C)(C)C)nc2C(=O)N2CCN(C)C(=O)C2(C)C)cc1-c1ccc(CN2CCOCC2)cn1 [1-(1-tert-butyl-3-(2,2,4-trimethyl-3-oxopiperazine-1-carbonyl)-1H-pyrazol-4-yl)-3-(4-methyl-3-(5-(morpholinomethyl)pyridin-2-yl)phenyl)urea]
9 | < 100 nM | Cc1ccc(NC(=O)Nc2cn(C(C)(C)C)nc2C(=O)N2CCN(C)C(=O)C2(C)C)cc1-c1ccc(N2CCOCC2)cn1 [1-(1-tert-butyl-3-(2,2,4-trimethyl-3-oxopiperazine-1-carbonyl)-1H-pyrazol-4-yl)-3-(4-methyl-3-(5-morpholinopyridin-2-yl)phenyl)urea]
10 | < 100 nM | Cc1ccc(NC(=O)Nc2cn(C(C)(C)C)nc2C(=O)N2CCN(C)C(=O)C2(C)C)cc1-c1ccc(CN2CCOCC2)nc1 [1-(1-tert-butyl-3-(2,2,4-trimethyl-3-oxopiperazine-1-carbonyl)-1H-pyrazol-4-yl)-3-(4-methyl-3-(6-(morpholinomethyl)pyridin-3-yl)phenyl)urea]
11 | < 100 nM | CCc1ccc(-c2cc(NC(=O)Nc3cn(C(C)(C)C)nc3C(=O)N3CCNC(=O)C3(C)C)ccc2C)cn1 [1-(1-tert-butyl-3-(2,2-dimethyl-3-oxopiperazine-1-carbonyl)-1H-pyrazol-4-yl)-3-(3-(6-ethylpyridin-3-yl)-4-methylphenyl)urea]
12 | < 100 nM | Cc1ccc(NC(=O)Nc2cn(C(C)(C)C)nc2C(=O)N2CCNC(=O)C2(C)C)cc1-c1ccc(C(C)C)nc1 [1-(1-tert-butyl-3-(2,2-dimethyl-3-oxopiperazine-1-carbonyl)-1H-pyrazol-4-yl)-3-(3-(6-isopropylpyridin-3-yl)-4-methylphenyl)urea]
13 | < 100 nM | Cc1ccc(NC(=O)Nc2cn(C(C)(C)C)nc2C(=O)N2CCNC(=O)C2(C)C)cc1-c1ccc(CN2CCOCC2)cn1 [1-(1-tert-butyl-3-(2,2-dimethyl-3-oxopiperazine-1-carbonyl)-1H-pyrazol-4-yl)-3-(4-methyl-3-(5-(morpholinomethyl)pyridin-2-yl)phenyl)urea]
14 | < 100 nM | Cc1ccc(NC(=O)Nc2cn(C(C)(C)C)nc2C(=O)N2CCNC(=O)C2(C)C)cc1-c1ccc(CN2CCOCC2)nc1 [1-(1-tert-butyl-3-(2,2-dimethyl-3-oxopiperazine-1-carbonyl)-1H-pyrazol-4-yl)-3-(4-methyl-3-(6-(morpholinomethyl)pyridin-3-yl)phenyl)urea]
15 | < 100 nM | Cc1ccc(NC(=O)Nc2cn(C(C)(C)C)nc2C(=O)N2CCNC(=O)C2(C)C)cc1-c1ccc(N2CCOCC2)nc1 [1-(1-tert-butyl-3-(2,2-dimethyl-3-oxopiperazine-1-carbonyl)-1H-pyrazol-4-yl)-3-(4-methyl-3-(6-morpholinopyridin-3-yl)phenyl)urea]
16 | < 100 nM | Cc1ccc(NC(=O)Nc2cn(C(C)(C)C)nc2C(=O)N2CCNC(=O)C2(C)C)cc1-c1cccnc1 [1-(1-tert-butyl-3-(2,2-dimethyl-3-oxopiperazine-1-carbonyl)-1H-pyrazol-4-yl)-3-(4-methyl-3-(pyridin-3-yl)phenyl)urea]
17 | < 1000 nM | Cc1ccc(NC(=O)Nc2cn(C(C)(C)C)nc2C(=O)N2CCN(C3CCN(C)C3)C(=O)C2(C)C)cc1-c1cccnc1 (centres unmarked) [1-(1-tert-butyl-3-(2,2-dimethyl-4-(1-methylpyrrolidin-3-yl)-3-oxopiperazine-1-carbonyl)-1H-pyrazol-4-yl)-3-(4-methyl-3-(pyridin-3-yl)phenyl)urea]
18 | < 100 nM | Cc1ccc(NC(=O)Nc2sc(C(C)(C)C)nc2C(=O)N2CCN(C)C(=O)C2(C)C)cc1-c1ccc(CN2CCOCC2)cn1 [1-(2-tert-butyl-4-(2,2,4-trimethyl-3-oxopiperazine-1-carbonyl)thiazol-5-yl)-3-(4-methyl-3-(5-(morpholinomethyl)pyridin-2-yl)phenyl)urea]
19 | < 100 nM | Cc1nnc(-c2ccc(-c3cc(NC(=O)Nc4sc(C(C)(C)C)nc4C(=O)N4CCN(C)C(=O)C4(C)C)ccc3C)cn2)o1 [1-(2-tert-butyl-4-(2,2,4-trimethyl-3-oxopiperazine-1-carbonyl)thiazol-5-yl)-3-(4-methyl-3-(6-(5-methyl-1,3,4-oxadiazol-2-yl)pyridin-3-yl)phenyl)urea]
20 | < 100 nM | Cc1ccc(NC(=O)Nc2sc(C(C)(C)C)nc2C(=O)N2CCN(C)C(=O)C2(C)C)cc1-c1ccc(CN2CCOCC2)nc1 [1-(2-tert-butyl-4-(2,2,4-trimethyl-3-oxopiperazine-1-carbonyl)thiazol-5-yl)-3-(4-methyl-3-(6-(morpholinomethyl)pyridin-3-yl)phenyl)urea]
21 | < 100 nM | CCc1ccc(-c2cc(NC(=O)Nc3cn(C4(C)CCCC4)nc3C(=O)N3CCNC(=O)C3(C)C)ccc2C)cn1 [1-(3-(2,2-dimethyl-3-oxopiperazine-1-carbonyl)-1-(1-methylcyclopentyl)-1H-pyrazol-4-yl)-3-(3-(6-ethylpyridin-3-yl)-4-methylphenyl)urea]
22 | < 100 nM | Cc1ccc(NC(=O)Nc2sc(C(C)(C)C)cc2C(=O)N2CCN(C)C(=O)C2(C)C)cc1-c1ccc(-n2ccnc2)nc1 [1-(3-(6-(1H-imidazol-1-yl)pyridin-3-yl)-4-methylphenyl)-3-(5-tert-butyl-3-(2,2,4-trimethyl-3-oxopiperazine-1-carbonyl)thiophen-2-yl)urea]
23 | < 100 nM | Cc1ccc(NC(=O)Nc2sc(C(C)(C)C)cc2C(=O)N2CCN(C)C(=O)C2(C)C)cc1-c1ccc(-n2cccn2)nc1 [1-(3-(6-(1H-pyrazol-1-yl)pyridin-3-yl)-4-methylphenyl)-3-(5-tert-butyl-3-(2,2,4-trimethyl-3-oxopiperazine-1-carbonyl)thiophen-2-yl)urea]
24 | < 100 nM | Cc1ccc(NC(=O)Nc2sc(C(C)(C)C)cc2C(=O)N2CCNC(=O)C2(C)C)cc1-c1ccc(N2CCC(N)C2)nc1 (centres unmarked) [1-(3-(6-(3-aminopyrrolidin-1-yl)pyridin-3-yl)-4-methylphenyl)-3-(5-tert-butyl-3-(2,2-dimethyl-3-oxopiperazine-1-carbonyl)thiophen-2-yl)urea]
25 | < 100 nM | Cc1ccc(NC(=O)Nc2sc(C(C)(C)C)cc2C(=O)N2CCNC(=O)C2(C)C)cc1-c1ccc(CN)nc1 [1-(3-(6-(aminomethyl)pyridin-3-yl)-4-methylphenyl)-3-(5-tert-butyl-3-(2,2-dimethyl-3-oxopiperazine-1-carbonyl)thiophen-2-yl)urea]
26 | < 1000 nM | Cc1ccc(NC(=O)Nc2sc3c(c2C(=O)N2CCN(C)C(=O)C2(C)C)CCOC3)cc1-c1ccc(CN2CCOCC2)nc1 [1-(4-methyl-3-(6-(morpholinomethyl)pyridin-3-yl)phenyl)-3-(3-(2,2,4-trimethyl-3-oxopiperazine-1-carbonyl)-5,7-dihydro-4H-thieno[2,3-c]pyran-2-yl)urea]
27 | < 100 nM | CCC(C)(C)c1cc(C(=O)N2CCN(C)C(=O)C2(C)C)c(NC(=O)Nc2ccc(C)c(-c3ccc(CN4CCOCC4)nc3)c2)s1 [1-(4-methyl-3-(6-(morpholinomethyl)pyridin-3-yl)phenyl)-3-(5-tert-pentyl-3-(2,2,4-trimethyl-3-oxopiperazine-1-carbonyl)thiophen-2-yl)urea]
28 | < 100 nM | Cc1ccc(NC(=O)Nc2cc(C(C)(C)C)oc2C(=O)N2CCN(C)C(=O)C2(C)C)cc1-c1ccc(CN2CCOCC2)cn1 [1-(5-tert-butyl-2-(2,2,4-trimethyl-3-oxopiperazine-1-carbonyl)furan-3-yl)-3-(4-methyl-3-(5-(morpholinomethyl)pyridin-2-yl)phenyl)urea]
29 | < 100 nM | CCc1ccc(-c2cc(NC(=O)Nc3cc(C(C)(C)C)sc3C(=O)N3CCN(C)C(=O)C3(C)C)ccc2C)cn1 [1-(5-tert-butyl-2-(2,2,4-trimethyl-3-oxopiperazine-1-carbonyl)thiophen-3-yl)-3-(3-(6-ethylpyridin-3-yl)-4-methylphenyl)urea]
